Data taken from patent US10676479B2, “Imidazolepyridine compounds and uses thereof” (Novartis AG, priority 2016, dated 2020).

Assays:
EED (1-441)-His protein = EED (1-441)-His protein (Homo sapiens (Human), UniProt O75530); test: EED-H3K27Me3 peptide competition binding assay by AlphaScreen; settings: EED Alphascreen binding Qualified assay
Description: Then 4 μL of detection beads mix was added to the plate and incubate in the dark at the rt for 1 h. The final concentration of donor and acceptor beads was 10 μg/mL for each. […] The data were then fit to a dose response equation using the program Helios (Novartis) to get the IC50 values. […] Sebaugh, J. […] Each compound was counter screened to determine if it interfered with the AlphaScreen beads. […] The plates were then incubated for 1 h at rt in dark before being read on EnVison.

[1] = biological target: wild type PRC2 (wtPRC2) complex (Homo sapiens (Human), UniProt O75530); test: EED LC-MS assay; assay type: biochemical; settings: EED LC-MS Qualified assay; read-out: (b) IC50
wild type PRC2 (wtPRC2) complex, sequence (O75530 whole entry): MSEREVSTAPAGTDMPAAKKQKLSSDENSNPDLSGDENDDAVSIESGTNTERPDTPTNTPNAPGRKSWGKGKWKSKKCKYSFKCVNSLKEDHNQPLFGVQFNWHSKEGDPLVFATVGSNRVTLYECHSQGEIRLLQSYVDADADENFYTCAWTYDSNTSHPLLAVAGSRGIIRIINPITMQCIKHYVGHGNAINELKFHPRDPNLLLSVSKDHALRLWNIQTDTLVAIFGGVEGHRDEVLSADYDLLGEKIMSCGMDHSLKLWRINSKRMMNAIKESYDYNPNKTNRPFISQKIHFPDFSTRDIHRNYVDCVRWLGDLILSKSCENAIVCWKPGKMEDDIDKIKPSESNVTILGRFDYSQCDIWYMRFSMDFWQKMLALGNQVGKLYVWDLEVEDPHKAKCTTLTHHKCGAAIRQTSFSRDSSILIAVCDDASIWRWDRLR
wild type PRC2 (wtPRC2) complex, sequence (Q15910 whole entry partner): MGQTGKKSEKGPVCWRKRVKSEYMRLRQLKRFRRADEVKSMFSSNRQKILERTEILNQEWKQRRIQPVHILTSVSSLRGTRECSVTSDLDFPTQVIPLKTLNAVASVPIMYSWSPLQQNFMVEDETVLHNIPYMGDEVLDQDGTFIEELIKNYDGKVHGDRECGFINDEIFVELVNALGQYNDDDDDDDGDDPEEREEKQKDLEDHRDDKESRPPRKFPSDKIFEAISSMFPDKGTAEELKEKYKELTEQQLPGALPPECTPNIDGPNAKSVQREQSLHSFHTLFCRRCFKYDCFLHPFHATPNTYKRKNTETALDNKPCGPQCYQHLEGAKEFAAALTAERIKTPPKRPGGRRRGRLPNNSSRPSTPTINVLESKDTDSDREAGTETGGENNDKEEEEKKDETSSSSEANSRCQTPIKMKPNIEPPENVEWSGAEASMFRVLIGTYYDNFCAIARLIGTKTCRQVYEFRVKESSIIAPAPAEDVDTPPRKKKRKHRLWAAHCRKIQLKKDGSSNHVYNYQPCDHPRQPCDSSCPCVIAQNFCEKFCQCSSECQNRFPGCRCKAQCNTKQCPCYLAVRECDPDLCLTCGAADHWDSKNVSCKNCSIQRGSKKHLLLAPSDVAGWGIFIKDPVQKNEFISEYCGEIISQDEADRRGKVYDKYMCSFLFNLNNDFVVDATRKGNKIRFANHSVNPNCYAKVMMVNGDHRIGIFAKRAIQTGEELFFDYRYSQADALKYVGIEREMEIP
wild type PRC2 (wtPRC2) complex, sequence (Q15022 whole entry partner): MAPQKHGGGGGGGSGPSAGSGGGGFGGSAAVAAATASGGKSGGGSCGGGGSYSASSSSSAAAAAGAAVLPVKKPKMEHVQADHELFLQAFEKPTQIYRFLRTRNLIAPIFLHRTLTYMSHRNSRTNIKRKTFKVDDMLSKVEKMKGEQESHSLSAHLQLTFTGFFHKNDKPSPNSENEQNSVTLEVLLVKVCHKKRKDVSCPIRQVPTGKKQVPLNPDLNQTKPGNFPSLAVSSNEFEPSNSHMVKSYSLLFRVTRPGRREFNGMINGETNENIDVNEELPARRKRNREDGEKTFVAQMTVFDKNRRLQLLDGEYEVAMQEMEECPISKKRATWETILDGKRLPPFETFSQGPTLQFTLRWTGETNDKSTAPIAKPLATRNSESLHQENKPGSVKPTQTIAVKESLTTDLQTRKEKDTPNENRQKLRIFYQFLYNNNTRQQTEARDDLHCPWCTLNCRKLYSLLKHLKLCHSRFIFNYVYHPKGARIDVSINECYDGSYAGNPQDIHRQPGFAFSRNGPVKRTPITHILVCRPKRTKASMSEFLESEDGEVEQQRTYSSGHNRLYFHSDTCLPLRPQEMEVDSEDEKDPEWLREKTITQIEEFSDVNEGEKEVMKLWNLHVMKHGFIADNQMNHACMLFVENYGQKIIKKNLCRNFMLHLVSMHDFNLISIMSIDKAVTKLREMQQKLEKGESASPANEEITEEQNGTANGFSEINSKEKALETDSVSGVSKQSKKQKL
Description: EED LC-MS Assay Representative compounds of the present invention were serially and separately diluted 3-fold in DMSO to obtain a total of eight or twelve concentrations. […] A 6 μL solution of 3 μM of the peptide substrate H3K27Me0 (histone H3[21-44]-biotin) in reaction buffer was added to initiate each reaction. […] The data were then fit to a dose response equation using the program Helios to get the IC50 values of the test compound.

[2] = test system: H3K27 methylation in G401 cell; test: ELISA (H3K27 methylation) assay; assay type: cell-based; settings: Homo sapiens, G-401, ELISA Qualified assay, 48 h, read-out: (c) IC50
Description: ELISA (H3K27 Methylation) Assay
Representative compounds of the present invention were serially and separately diluted 3-fold in DMSO to obtain a total of eight or twelve concentrations. Then the compounds were added to G401 cell cultured in 384-well plate at 1:500 dilution to obtain the highest concentration of 20 μM. The cells were further cultured for 48 h before ELISA procedure.
ELISA protocol: Cell lysates were transferred to the wells of a 384-well plate and the final volume was adjusted to 50 μL per well with PBS. The plate was sealed, centrifuged at 2,000 rpm for 2 min and incubated at 4° C. for about 16 h. The plate was washed with TBST buffer (1×TBS (10×TBS: 24.2 g Tris (Sigma, T6066), 80 g NaCl (Sigma, S3014) to 1 L of water and adjust pH to 7.6 with HCl) with 0.1% Tween-20). Blocking buffer (TBST, 5% BSA; 50 μL per well) was added and the plate was incubated for 1 h at rt. The blocking buffer was removed and primary antibody was added (30 μL per well). […] The primary antibody was incubated in the plate at rt for 1 h. The wells were washed with TBST and incubated with secondary antibody for 1 h at rt. […] After 1 h of incubation at rt, the wells were washed with TBST. […] The signal was read using a PerkinElmer Envision Reader. The H3K27 methylation readouts were normalized using H3 signal and then percentage inhibition was calculated against the samples treated with DMSO. The data were then fit to a dose response curve using the program Helios to get the IC50 values of the test compound.

EED (1-441)-His protein, sequence (O75530 whole entry): as the sequence (O75530 whole entry) above

| IC50 (EED (1-441)-His protein) | IC50 [1] | IC50 [2] | Compound |
| --- | --- | --- | --- |
| 0.0051 µM | 0.0084 µM | 0.0179 µM | Cc1cc(-c2cnc(NCc3c(F)ccc4c3CCO4)n3cncc23)n(C)n1 [Example 45, 8-(1,3-dimethyl-1H-pyrazol-5-yl)-N-((5-fluoro-2,3-dihydrobenzofuran-4-yl)methyl)imidazo[1,5-c]pyrimidin-5-amine] |
| 0.0184 µM | 0.0228 µM | 0.112 µM | Cc1nn(C)c(C)c1-c1cnc(NCc2c(F)ccc3c2CCO3)n2cncc12 [Example 46, N-((5-fluoro-2,3-dihydrobenzofuran-4-yl)methyl)-8-(1,3,5-trimethyl-1H-pyrazol-4-yl)imidazo[1,5-c]pyrimidin-5-amine] |
| 0.0081 µM | 0.0143 µM | 0.0424 µM | Cc1ncncc1-c1cnc(NCc2c(F)ccc3c2CCO3)n2cncc12 [Example 47, N-((5-fluoro-2,3-dihydrobenzofuran-4-yl)methyl)-8-(4-methylpyrimidin-5-yl)imidazo[1,5-c]pyrimidin-5-amine] |
| 0.0105 µM | 0.0164 µM | 0.0341 µM | Cc1cc(-c2cnc(NCc3c(F)ccc4c3CCO4)n3cncc23)ccc1S(C)(=O)=O [Example 48, N-((5-fluoro-2,3-dihydrobenzofuran-4-yl)methyl)-8-(3-methyl-4-(methylsulfonyl)phenyl)imidazo[1,5-c]pyrimidin-5-amine] |
| 0.0079 µM | 0.0135 µM | 0.0204 µM | Cc1nn(CCO)c(C)c1-c1cnc(NCc2c(F)ccc3c2CCO3)n2cncc12 [Example 49, 2-(4-(5-(((5-fluoro-2,3-dihydrobenzofuran-4-yl)methyl)amino)imidazo[1,5-c]pyrimidin-8-yl)-3,5-dimethyl-1H-pyrazol-1-yl)ethan-1-ol] |
| 0.0071 µM | 0.0162 µM | 0.0742 µM | Cc1ncc(-c2cnc(NCc3c(F)ccc4c3CCO4)n3cncc23)cn1 [Example 50, N-((5-fluoro-2,3-dihydrobenzofuran-4-yl)methyl)-8-(2-methylpyrimidin-5-yl)imidazo[1,5-c]pyrimidin-5-amine] |
| 0.0052 µM | 0.0094 µM | 0.0064 µM | Fc1ccc2c(c1CNc1ncc(-c3cccnc3C(F)F)c3cncn13)CCO2 [Example 51, 8-(2-(difluoromethyl)pyridin-3-yl)-N-((5-fluoro-2,3-dihydrobenzofuran-4-yl)methyl)imidazo[1,5-c]pyrimidin-5-amine] |
| 0.0102 µM | 0.0178 µM | 0.0425 µM | Fc1ccc2c(c1CNc1ncc(-c3cnccc3C(F)F)c3cncn13)CCO2 [Example 52, 8-(4-(difluoromethyl)pyridin-3-yl)-N-((5-fluoro-2,3-dihydrobenzofuran-4-yl)methyl)imidazo[1,5-c]pyrimidin-5-amine] |
| 0.0099 µM | 0.0231 µM | 0.0948 µM | Cc1nn(C(C)C)cc1-c1cnc(NCc2c(F)ccc3c2CCO3)n2cncc12 [Example 53, N-((5-fluoro-2,3-dihydrobenzofuran-4-yl)methyl)-8-(1-isopropyl-3-methyl-1H-pyrazol-4-yl)imidazo[1,5-c]pyrimidin-5-amine] |
| 0.0044 µM | 0.0126 µM | 0.0081 µM | Cc1cc(C(=O)N(C)C)ncc1-c1cnc(NCc2c(F)ccc3c2CCO3)n2cncc12 [Example 54, 5-(5-(((5-fluoro-2,3-dihydrobenzofuran-4-yl)methyl)amino)imidazo[1,5-c]pyrimidin-8-yl)-N,N,4-trimethylpicolinamide] |
| 0.0033 µM | 0.0137 µM | 0.0374 µM | Fc1ccc2c(c1CNc1ncc(-c3ccc(CN4CCC4)cc3)c3cncn13)CCO2 [Example 55, 8-(4-(azetidin-1-ylmethyl)phenyl)-N-((5-fluoro-2,3-dihydrobenzofuran-4-yl)methyl)imidazo[1,5-c]pyrimidin-5-amine] |
| 0.0048 µM | 0.0182 µM | 0.0209 µM | Cc1nc(C(F)(F)CO)ccc1-c1cnc(NCc2c(F)ccc3c2CCO3)n2cncc12 [Example 56, 2,2-difluoro-2-(5-(5-(((5-fluoro-2,3-dihydrobenzofuran-4-yl)methyl)amino)imidazo[1,5-c]pyrimidin-8-yl)-6-methylpyridin-2-yl)ethan-1-ol] |
| 0.0075 µM | 0.0125 µM | 0.0541 µM | Cc1nc(C(F)F)ccc1-c1cnc(NCc2c(F)ccc3c2CCO3)n2cncc12 [Example 57, 8-(6-(difluoromethyl)-2-methylpyridin-3-yl)-N-((5-fluoro-2,3-dihydrobenzofuran-4-yl)methyl)imidazo[1,5-c]pyrimidin-5-amine] |
| 0.0149 µM | 0.0252 µM | 0.0361 µM | Cc1c(-c2cnc(NCc3c(F)ccc4c3CCO4)n3cncc23)ccnc1CF [Example 58, N-((5-fluoro-2,3-dihydrobenzofuran-4-yl)methyl)-8-(2-(fluoromethyl)-3-methylpyridin-4-yl)imidazo[1,5-c]pyrimidin-5-amine] |
| 0.013 µM | 0.0255 µM | 0.0987 µM | Cc1nc(C(F)(F)CN2CCCC2)ccc1-c1cnc(NCc2c(F)ccc3c2CCO3)n2cncc12 [Example 59, 8-(6-(1,1-difluoro-2-(pyrrolidin-1-yl)ethyl)-2-methylpyridin-3-yl)-N-((5-fluoro-2,3-dihydrobenzofuran-4-yl)methyl)imidazo[1,5-c]pyrimidin-5-amine] |
| 0.0153 µM | 0.0113 µM | 0.0521 µM | Fc1ccc2c(c1CNc1ncc(-c3ccc(C(F)F)nc3)c3cncn13)CCO2 [Example 60, 8-(6-(difluoromethyl)pyridin-3-yl)-N-((5-fluoro-2,3-dihydrobenzofuran-4-yl)methyl)imidazo[1,5-c]pyrimidin-5-amine] |
| 0.0083 µM | 0.0191 µM | 0.0225 µM | Cc1nc(OC(C)C)ncc1-c1cnc(NCc2c(F)ccc3c2CCO3)n2cncc12 [Example 61, N-((5-fluoro-2,3-dihydrobenzofuran-4-yl)methyl)-8-(2-isopropoxy-4-methylpyrimidin-5-yl)imidazo[1,5-c]pyrimidin-5-amine] |
| 0.0037 µM | 0.0066 µM | 0.0132 µM | Cc1cn(-c2cnc(NCc3c(F)ccc4c3CCO4)n3cncc23)cn1 [Example 62, N-((5-fluoro-2,3-dihydrobenzofuran-4-yl)methyl)-8-(4-methyl-1H-imidazol-1-yl)imidazo[1,5-c]pyrimidin-5-amine] |
| 0.0095 µM | 0.0267 µM | 0.0618 µM | Cc1nc(C(=O)N(C)C)ccc1-c1cnc(NCc2c(F)ccc3c2CCO3)n2cncc12 [Example 63, 5-(5-(((5-fluoro-2,3-dihydrobenzofuran-4-yl)methyl)amino)imidazo[1,5-c]pyrimidin-8-yl)-N,N,6-trimethylpicolinamide] |
| 0.0554 µM | 0.0547 µM | 0.403 µM | CN(C)Cc1ccc(-c2cnc(NCc3cccc4occc34)n3cncc23)cc1 [Example 64, N-(benzofuran-4-ylmethyl)-8-(4-((dimethylamino)methyl)phenyl)imidazo[1,5-c]pyrimidin-5-amine] |
| 0.285 µM | 0.0932 µM | 0.641 µM | c1cc(CNc2ncc(-c3ccncc3)c3cncn23)c2ccoc2c1 [Example 65, N-(benzofuran-4-ylmethyl)-8-(pyridin-4-yl)imidazo[1,5-c]pyrimidin-5-amine] |
